This test has as its system pNL4-3 SP1-V7A in MT-4 cells. In words: Antiviral assay in MT-4 cells (RT readout), SP1-V7A. Type of test: cell-based, HIV-1. The settings on record: Human immunodeficiency virus 1, MT4, 96 h, read-out: Antiviral Assay IC50 (nM) SP1 V7A. As for the experimental part: Cell culture, plasmids and transfections. The MT-4 T-cell line was maintained in RPMI-1640 medium supplemented with 10% (vol/vol) fetal bovine serum (FBS), 2 mM glutamine, 100 U/mL penicillin and 100 μg/mL streptomycin at 37° C. in a humidified 5% CO2 atmosphere. HeLa and 293T cells were maintained in Dulbecco's modified Eagle's medium (DMEM) supplemented with 5% (vol/vol) FBS, 2 mM glutamine, 100 U/mL penicillin and 100 μg/mL streptomycin. Molecular clones used in this study were WT pNL4-3 and the derivative encoding a Val-to-Ala mutation at SP1 residue 7, referred to as SP1-V7A. The MT-4 T-cell line was transfected the DEAE/dextran procedure; HeLa and 293T cells were transfected with linear polyethylenimine (L-PEI) or Lipofectamine 2000 (Invitrogen) as recommended by the supplier.
Antiviral assays. To produce HIV-1 stocks, 293T cells were transfected with WT pNL4-3 or the SP1-V7A derivative and culture supernatants were collected 24 h post transfection. RT-normalized virus supernatants were used to infect MT-4 cells at room temperature for 30 min. Cells were then cultured in the presence of serial dilutions of compounds. […] The IC50s in primary peripheral blood mononuclear cells (PBMCs) were calculated with a multi-clade panel of HIV-1 isolates by Southern Research Institute (Frederick, Md.). […]

This is an account of results in patent publication US11236122B2, “Triterpene amine derivatives” (DFH THERAPEUTICS, priority 2018, dated 2022).

One may read the IC50 as the concentration that gives 50% inhibition.

SMILES strings stand for the structures. Where a name gives a salt, the structure may show the parent alone.

As for `C=C(C)[C@@H]1CC[C@]2(CCNC3CCN(CCO)CC3)CC[C@]3(C)[C@H](CC[C@@H]4[C@@]5(C)CC[C@H](OC(=O)CC(C)(C)CC(=O)O)C(C)(C)[C@@H]5CC[C@]43C)[C@@H]12` [Compound 51f, (3β)-17-[2-[[1-(2-Hydroxyethyl)piperidin-4-yl]amino]ethyl]-28-norlup-20(29)-en-3-ol, 3-(Hydrogen 3,3-Dimethylpentanedioate), Bis(trifluoroacetate) Salt], the IC50 turned out to be 8 ± 2 nM.
